{"source": "patent US11400103B2", "about": "“Methods of preventing platelet activation” (Vanderbilt University, priority 2015, dated 2022)", "key": {"Human platelets [1]": {"test_system": "Human platelets", "experiment": "Inhibition of formation of LG adducts in platelets", "type": "cell-based", "conditions": "1 mM compound, 10 μM dazoxiben 30 min, arachidonic acid 2 h", "protocol": "Human platelets were pre-incubated with 10 μM dazoxiben, a thromboxane synthase inhibitor, and 1 mM of the specified compound or vehicle (control) for 30 min. After incubation, […] arachidonic acid was added for 2 h, and then the proteins were precipitated and digested to single amino acids by step-digestion with proteases. The daughter ions at m/z 332.1 and 84.1 for the lactam were monitored. Values are means±SD (n=9)*P<0.001 vs. control, +P<0.001 vs. 100 μM concentration."}, "RAW264.7 cells": {"test_system": "RAW264.7 cells", "experiment": "LG-lysyl adduct formation on histones in RAW264.7 cells", "type": "cell-based", "conditions": "500 μM scavenger 45 min, 20 μM AA 1 h, COX-2 stimulated cells", "protocol": "(A). Scavengers were screened in RAW264.7 cells for the ability to decrease LG adduct formation on histones. Scavengers used were glucosamine (GA), 3-methoxysalicylamine (3-MoSA), pentylpyridoxamine (PPM), and 5-ethylsalicylamine (EtSA). Cells were stimulated to express COX-2, pretreated 45 min. with 500 μM scavenger or vehicle (H2O), and given 20 μM AA for 1 h before lysing and extracting histones. Histone proteins were analyzed by LC/ESI/MS/MS for LG-lysyl lactam adduct, n=2."}, "human washed platelets [2]": {"test_system": "human washed platelets", "experiment": "LC/MS/MS quantification of scavenger-MDA adducts from washed platelets", "type": "cell-based", "conditions": "1.5 mM scavenger 40 min, then 5 μM arachidonic acid 2 h", "protocol": "LC/MS/MS quantification of scavengers-MDA adducts from washed platelet. Washed platelets were activated as described above in the section “ex vivo activation”. The scavenger-MDA adducts were extracted three times with 500 μl of ethyl acetate from 50 μl of the reaction mixture, as described above. The extract was dried down, re-suspended in 100 μl of ACN-water (1:1, v/v), vortexed, and filtered through a 0.22-um spin X column. The reactions were analyzed by LC/MS/MS using the column and gradient as described above. The mass spectrometer was operated in the positive ion mode and the spray voltage was maintained at 5000 V. Nitrogen was used for the sheath gas and auxiliary gas at pressures of 30 and 5 arbitrary units, respectively. The optimized skimmer offset was set at 10, capillary temperature was 300° C. and the tube lens voltage for both compounds was set to 49. Selected reaction monitoring of specific transition ions for the precursor ions at m/z 178→106 (SA-MDA adduct) or m/z 208→136 (3-MoSA-MDA adduct) at −15 eV were used."}, "COX-1": {"test_system": "COX-1", "experiment": "T×B2 in washed platelets by GC/MS as a measure of COX activity", "type": "cell-based, human", "conditions": "5 μM arachidonic acid 2 h; for effect on T×B2 levels: scavenger 1.5 mM; for inhibition at 100 µM: Homo sapiens, Platelet, read-out: inhibition of T×B2 levels", "protocol": "(§1) In vitro platelet activation: Blood obtained from healthy volunteers was collected into vacuum tubes containing citrate, from a peripheral vein using a 21-gauge needle, and washed platelets were prepared as previously described (7). The platelets were counted with a Coulter counter and diluted with resuspension buffer to a final concentration of […], and aliquoted in volumes corresponding to 500 μl. The aliquots were preincubated for 40 min at room temperature with vehicle, the thromboxane synthase inhibitor ozagrel (100 μM), aspirin (100 μM) or the MDA scavengers, SA (1.5 mM) or 3-MoSA (1.5 mM). Next, arachidonic acid (5 μM) was added and the platelets were incubated for an additional 2 h at room temperature. The reactions were stopped by adding indomethacin (100 μM) and the aldehyde scavenger pyridoxamine (1 mM) for 30 min at 4° C., to inhibit all residual COX-1 activity and to prevent formation of MDA adducts on proteins during the purification process, respectively. An aliquot (5 μl) of sample was used for protein estimations using a BCA assay.\n(§2) GC/NICI/MS quantification of thromboxane B2. Serum T×B2 (sT×B2) was measured as an indicator of inhibition of platelet COX activity from blood drawn into non-citrated vacuum tubes. Serum from patients was prepared by incubating the blood at 37° C. for 45 min and then centrifuged at 3,200×g for 15 min. Serum was separated and stored at −80° C. until analysis. For ex vivo experiment, 50 μl of washed platelets were used. sT×B2 was assayed by stable isotope dilution gas chromatography/mass spectrometry (GC/MS) with selective ion monitoring as described previously (10)."}, "human washed platelets [3]": {"test_system": "human washed platelets", "experiment": "Dilysyl-MDA crosslinks in arachidonic acid-activated human washed platelets (LC/MS/MS)", "type": "cell-based", "conditions": "preincubation 40 min (ozagrel 100 μM, aspirin 100 μM, SA or 3-MoSA 1.5 mM), then 5 μM arachidonic acid 2 h", "protocol": "as §1\nAnalysis of Protease-Derived Lysyl-MDA-Lysyl Crosslinks (Dilysyl-MDA Crosslinks) in Washed Platelets by LC/ESI/MS/MS. Samples (around 3 mg of protein) were digested with proteases as previously described for lysyl-lactam adducts (7). In summary, the samples were subsequently heated at 95° C. and allowed to cool at room temperature, before step digestion with pronase (1 mg) at 37° C. for 24 h. Pronase was inactivated by heating samples at 95° C. for 10 min and then cooled to room temperature. Then, 1 μl of […] aminopeptidase was added for every 1 mg of sample protein and incubated at 37° C. for 24 h. Five nanograms of ^13C6-dilysyl-MDA crosslink standard were added to each platelet sample and dilysyl-MDA crosslinks were purified using Oasis cartridge as described above in the section for the preparation of dilysyl-MDA Crosslink standard. The eluate was dried under nitrogen flow to a volume of 100 μl, diluted up to 1 ml with a 0.1% formic acid aqueous solution, and filtered using a 0.22 µm nylon Spin-x centrifuge tube spun at 6,000 rpm for 5 min. Samples were purified by HPLC through the Thermo Scientific Aquasil C18 column. The fractions containing the radioactivity were pooled, concentrated in Oasis HLB cartridge, and then dried under nitrogen to a final volume of 40 μl.\nPooled HPLC fractions concentrated using Oasis were analyzed by LC/MS/MS using an YMC OD-AQ column. […] The gradient was as follows: 0-5 min 100-0% A, 5-7 min 0% A, 7-9 min 0-100% A, 9-15 min 100% A, with a flow rate of 0.2 ml/min. The mass spectrometer was operated in the positive ion mode and the electrospray needle was maintained at 4000 V. Nitrogen was used for both the sheath and auxiliary gas at pressures of 30 and 5 arbitrary units, respectively. […] These settings were used during all experiments, including the validation procedure."}, "[4]": {"experiment": "Rate of reactivity of the scavengers with MDA in vitro (HPLC)", "conditions": "for formation of MDA adduct of the scavenger relative to MDA-lysine adduct: 37° C., 4 h, MDA ratio 1:1, 0.1 M phosphate pH 7.4, HPLC; for lysine-MDA adducts formation: Lysine and MDA incubated at 37° C. for 4 h in presence of scavenger", "protocol": "Determination of the rate of reactivity of the scavengers with MDA in vitro. N^α-Acetyllysine with or without SA, 3-MoSA or 4-HoBA was incubated at 37° C. in the presence of MDA (ratio 1:1) in 0.1 M phosphate, pH 7.4. After 4 h, 10 μl aliquots were diluted to 200 μl with solvent A and analyzed by HPLC. Solvent A consisted to 20% methanol/0.2% formic acid and solvent B was 99.8% methanol/0.2% formic acid. The gradient was as follows: 0-1 min 100% A, 1-7 min 100-0% A, 7-14 min […]. Phenomenex Kinetex column at a flow rate of 0.2 ml/min and the absorbance at 280 nm were used."}, "Human platelets [5]": {"test_system": "Human platelets", "conditions": "previously shown (ref 4); cited from earlier work"}, "platelet COX1": {"test_system": "platelet COX1", "experiment": "Serum T×B2 in patients with sickle cell disease (GC/MS)", "type": "in vivo, human", "protocol": "as §2"}, "[6]": {"test_system": "platelets of patients with SCD", "experiment": "Platelet dilysyl-MDA crosslinks in patients with sickle cell disease", "type": "in vivo, human", "excerpt": "Sample collection. Written informed consent was obtained from study participants and human blood was obtained following a protocol approved by the Institutional Review Board of Vanderbilt University. Samples were obtained from three different populations: healthy subjects who had no component of the MetSyn or SCD, patients with MetSyn and patients with SCD. Patients with MetSyn were 35-75 year old and fit the MetSyn criteria in accord with the American Heart Association/National Heart, Lung, and Blood Institute criteria (6). Patients with SCD were 25-50 year old and were homozygous sickle (SS) or compound heterozygote with beta-thalassemia (Sβ-thal) phenotype. […]\nIn vivo platelet activation: Metabolic Syndrome and Sickle Cell patients. […] Accordingly, the levels of dilysyl-MDA crosslinks in platelets were measured in two conditions in which there is evidence of in vivo platelet activation, metabolic syndrome (MetSyn) (8, 9) and sickle cell disease (SCD) (8, 9), and compared to the levels in platelets from healthy subjects isolated from blood collected in the same conditions. […]\nAnalysis of Protease-Derived Lysyl-MDA-Lysyl Crosslinks (Dilysyl-MDA Crosslinks) in Washed Platelets by LC/ESI/MS/MS. […] The fractions containing the radioactivity were pooled, concentrated in Oasis HLB cartridge, and then dried under nitrogen to a final volume of 40 μl. […]"}}, "note": "Entries after “also recorded” stand apart in the source; their conditions may differ."}
{"molecule": "pentylpyridoxamine [reference compound]", "values": [{"measurement": "scavenging of LG adducts in the platelet", "setting": "Human platelets [1]", "value": "effective scavenger"}, {"measurement": "effect on LG adducts of histones (nucleus)", "setting": "RAW264.7 cells", "value": "only partially effective"}]}
{"molecule": "CC(=O)O.COc1cccc(CN)c1O", "note": "[3-MoSA, 3-methoxysalicylamine acetate]", "values": [{"measurement": "formation of scavenger-MDA adducts in activated platelets", "setting": "human washed platelets [2]", "value": "concomitant appearance of the equivalent scavenger-MDA adduct"}, {"measurement": "effect on T×B2 levels", "setting": "COX-1", "value": "neither SA nor 3-MoSA significantly affected T×B2 levels"}, {"measurement": "scavenging of LG adducts in the platelet", "setting": "Human platelets [1]", "value": "active"}, {"measurement": "levels of dilysyl-MDA crosslinks after platelet activation", "setting": "human washed platelets [3]; acetate", "value": "decreased levels of dilysysl-MDA crosslinks to baseline levels; also recorded: prevent formation of MDA adducts of platelet proteins"}, {"measurement": "effect on LG adducts of histones (nucleus)", "setting": "RAW264.7 cells", "value": "inactive"}, {"measurement": "formation of MDA adduct of the scavenger relative to MDA-lysine adduct", "setting": "[4]", "value": 15.1, "unit": "fold"}, {"measurement": "lysine-MDA adducts formation", "setting": "[4]", "value": "inhibited"}]}
{"molecule": "O=C(O)/C=C/c1ccc(Cn2ccnc2)cc1", "note": "[ozagrel, reference compound]", "values": [{"measurement": "inhibition at 100 µM", "setting": "COX-1", "value": 96, "unit": "%"}, {"measurement": "levels of dilysyl-MDA crosslinks after platelet activation", "setting": "human washed platelets [3]", "value": "reduced levels of the dilysysl-MDA crosslink to baseline levels; also recorded: reduce the dilysyl-MDA crosslinks to the levels in non-activated platelets"}]}
{"molecule": "NCc1ccc(O)cc1", "note": "[4-HoBA, 4-hydroxybenzylamine, reference compound]", "values": [{"measurement": "formation of MDA adduct of the scavenger relative to MDA-lysine adduct", "setting": "[4]", "value": 0.6, "unit": "fold"}]}
{"molecule": "CC(=O)O.NCc1ccccc1O", "note": "[SA, Salicylamine acetate]", "values": [{"measurement": "formation of scavenger-MDA adducts in activated platelets", "setting": "human washed platelets [2]", "value": "concomitant appearance of the equivalent scavenger-MDA adduct"}, {"measurement": "effect on T×B2 levels", "setting": "COX-1", "value": "neither SA nor 3-MoSA significantly affected T×B2 levels"}, {"measurement": "levels of dilysyl-MDA crosslinks after platelet activation", "setting": "human washed platelets [3]; acetate", "value": "decreased levels of dilysysl-MDA crosslinks to baseline levels; also recorded: prevent formation of MDA adducts of platelet proteins"}, {"measurement": "formation of MDA adduct of the scavenger relative to MDA-lysine adduct", "setting": "[4]", "value": 9.2, "unit": "fold"}, {"measurement": "lysine-MDA adducts formation", "setting": "[4]", "value": "inhibited"}, {"measurement": "formation of levuglandinyl adducts of platelet proteins", "setting": "Human platelets [5]", "value": "prevent formation of levuglandinyl adducts of platelet proteins"}]}
{"molecule": "CCc1ccc(O)c(CN)c1", "note": "[EtSA, 5-ethylsalicylamine]", "values": [{"measurement": "levels of dilysyl-MDA crosslinks after platelet activation", "setting": "human washed platelets [3]", "value": "as effective as scavengers as was SA; also recorded: prevent formation of MDA adducts of platelet proteins"}, {"measurement": "effect on LG adducts of histones (nucleus)", "setting": "RAW264.7 cells", "value": "blocks LG-lysyl adduct formation on histones"}, {"measurement": "effect on LG adducts of histones (nucleus)", "setting": "RAW264.7 cells; listed as 5-ethylsalicylamine", "value": "effective scavenger"}]}
{"molecule": "O=C(c1ccccc1)c1ccc2n1CCC2C(=O)O", "note": "(stereo not shown) [ketorolac]", "values": [{"measurement": "levels of serum T×B2", "setting": "platelet COX1; SCD patients during ketorolac treatment (from 219.7±183.1 ng/mL)", "value": "68.9 ± 127.7", "unit": "ng/mL"}, {"measurement": "reduction in serum T×B2", "setting": "platelet COX1; SCD patients, therapeutic use", "value": 69, "unit": "%"}, {"measurement": "levels of platelet dilysyl-MDA crosslinks", "setting": "[6]; SCD patients treated with ketorolac during admission for vaso-occlusive crisis", "value": "3.15±1.18 ng/mg of protein"}, {"measurement": "reduction of platelet dilysyl-MDA crosslinks", "setting": "[6]; therapeutic use in SCD patients", "value": "reduction of dilysyl-MDA crosslinks to the level found in normal platelets"}]}
{"molecule": "Cc1ccc(O)c(CN)c1", "note": "[MeSA, 5-methylsalicylamine]", "values": [{"measurement": "levels of dilysyl-MDA crosslinks after platelet activation", "setting": "human washed platelets [3]", "value": "as effective as scavengers as was SA; also recorded: prevent formation of MDA adducts of platelet proteins"}]}
{"molecule": "CC(=O)Oc1ccccc1C(=O)O", "note": "[aspirin, acetylsalicylic acid, reference compound]", "values": [{"measurement": "inhibition at 100 µM", "setting": "COX-1", "value": 96, "unit": "%"}, {"measurement": "levels of dilysyl-MDA crosslinks after platelet activation", "setting": "human washed platelets [3]", "value": "reduced levels of the dilysysl-MDA crosslink to baseline levels; also recorded: reduce the dilysyl-MDA crosslinks to the levels in non-activated platelets"}]}
